SMILES strings stand for the structures.

The compound `O=C(NCCCCN1CCC(Oc2cccc(C(F)(F)F)c2)CC1)c1ccnc2ccccc12` yielded a logP of 4.22. As to `CCC(O)NC1CCC(CCN2CCN(c3cccc(Cl)c3Cl)CC2)CC1` (stereo not given), the logP was determined as 4.29. Under `N#Cc1cc(N2CCN(CCCCNC(=O)c3cnc4ccccc4c3)CC2)cc(C(F)(F)F)c1` stands 4.55. `CS(=O)(=O)N[C@H]1CC[C@H](CCN2CCN(c3cccc(Cl)c3Cl)CC2)CC1` registered a logP of 4.03.

On to `O=C(NCCCCN1CCC(Nc2cccc(C(F)(F)F)c2)CC1)c1ccc(Br)cc1`, for which the logP worked out at 3.76. `O=C(CNc1ccc2[nH]c(=O)[nH]c2c1)N1CCC(Cc2ccc(F)cc2)CC1`: the lipophilicity (logP) was determined as 3.21.

In turn, `O=C(Nc1ccc2[nH]c(=O)oc2c1)C(=O)N1CCC(Cc2ccccc2)CC1` registered a logP of 3.78. Under `O=C(NCCCCN1CCC(c2cccc(C(F)(F)F)c2)CC1)c1ccc(Br)cc1` stands 4.28.

`N#Cc1cc(N2CCN(CCCCNC(=O)C=Cc3cccnc3)CC2)cc(C(F)(F)F)c1` returned a logP of 3.62. The figure for `CC(=O)NC1CCC(CCN2CCN(c3cccc(Cl)c3Cl)CC2)CC1` (stereo not given) is 4.18.
